Tests used:
Type in all cases: in vivo
[1] = system: Echinochloa crus-galli; experiment: Pre-emergence herbicidal effect; settings: 320 g/ha, scored visually after 3 weeks vs untreated controls, 100% = plants have died
Procedure, shortened: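 Wettable powder or emulsion concentrate sprayed onto soil covering freshly sown seeds in sandy loam, 600 to 800 L/ha water with 0.2% wetting agent. Pots kept in greenhouse. Damage scored visually after 3 weeks against untreated controls, 0-100% activity.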

[2] = system: Lolium multiflorum; experiment: Pre-emergence herbicidal effect; settings: 320 g/ha, scored visually after 3 weeks vs untreated controls, 100% = plants have died
Procedure, shortened: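 Seeds sown in sandy loam and covered; compounds as WP or EC applied to the soil surface pre-emergence at 600 to 800 L/ha water with 0.2% wetting agent. Greenhouse growth for 3 weeks, then damage scored visually versus untreated controls (100% = plants dead, 0% = like control).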

[3] = system: Alopecurus myosuroides; experiment: Post-emergence herbicidal effect; settings: one-leaf stage, 320 g/ha, assessed visually after about 3 weeks, 100% = plants have died
Description: (§1) ALOMY: Alopecurus myosuroides Seeds of monocotyledonous and dicotyledonous weed and crop plants are laid out in sandy loam soil in wood-fibre pots, covered with soil and cultivated in a greenhouse under good growth conditions. 2 to 3 weeks after sowing, the test plants are treated at the one-leaf stage. The compounds of the invention, formulated in the form of wettable powders (WP) or as emulsion concentrates (EC), are then sprayed onto the green parts of the plants as aqueous suspension or emulsion at a water application rate equating to 600 to 800 L/ha with addition of 0.2% wetting agent. After the test plants have been left to stand in the greenhouse under optimal growth conditions for about 3 weeks, the action of the preparations is assessed visually in comparison to untreated controls (herbicidal action in percent (%): 100% activity=the plants have died, 0% activity=like control plants).

[4] = system: Echinochloa crus-galli; experiment: Post-emergence herbicidal effect; settings: one-leaf stage, 320 g/ha, assessed visually after about 3 weeks, 100% = plants have died
Procedure, shortened: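 Greenhouse plants in sandy loam were sprayed at the one-leaf stage with WP or EC formulations at 600 to 800 L/ha water with 0.2% wetting agent. After about 3 weeks, damage was scored visually in % against untreated controls (100% = dead).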

[5] = system: Lolium multiflorum; experiment: Post-emergence herbicidal effect; settings: one-leaf stage, 320 g/ha, assessed visually after about 3 weeks, 100% = plants have died
Description: as §1, with “LOLMU: Lolium multiflorum” for “ALOMY: Alopecurus myosuroides”

[6] = system: Setaria viridis; experiment: Pre-emergence herbicidal effect; settings: 320 g/ha, scored visually after 3 weeks vs untreated controls, 100% = plants have died
Procedure, shortened: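 Pre-emergence: WP or EC formulations sprayed onto the soil surface over sown seeds in sandy loam at 600–800 L/ha water with 0.2% wetting agent. Plants kept in a greenhouse; damage scored visually after 3 weeks as % activity versus untreated controls (100% = dead).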

[7] = system: Setaria viridis; experiment: Post-emergence herbicidal effect; settings: one-leaf stage, 320 g/ha, assessed visually after about 3 weeks, 100% = plants have died
Procedure, shortened: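 Greenhouse plants grown in sandy loam were sprayed at the one-leaf stage, 2-3 weeks after sowing. Compounds were applied as WP or EC formulations in 600-800 L/ha water plus 0.2% wetting agent. About 3 weeks later, damage was scored visually against untreated controls (0% = like control, 100% = dead plants).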

[8] = system: Alopecurus myosuroides; experiment: Pre-emergence herbicidal effect; settings: 320 g/ha, scored visually after 3 weeks vs untreated controls, 100% = plants have died
Procedure, shortened: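 Seeds sown in sandy loam and covered; WP- or EC-formulated compounds sprayed onto covering soil at 600–800 L/ha water with 0.2% wetting agent. Greenhouse-grown; damage scored visually after 3 weeks versus untreated controls (100% = plants died, 0% = like control).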

[9] = system: Avena fatua; experiment: Pre-emergence herbicidal effect; settings: 320 g/ha, scored visually after 3 weeks vs untreated controls, 100% = plants have died
Procedure, shortened: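 Weed and crop seeds sown in sandy loam were treated pre-emergence on the soil surface with WP or EC formulations at a water rate of 600 to 800 L/ha plus 0.2% wetting agent. Plants grown in a greenhouse; damage scored visually after 3 weeks as percent activity relative to untreated controls (100% = dead).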

[10] = system: Avena fatua; experiment: Post-emergence herbicidal effect; settings: one-leaf stage, 320 g/ha, assessed visually after about 3 weeks, 100% = plants have died
Procedure, shortened: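 Greenhouse-grown plants in sandy loam treated at one-leaf stage, 2–3 weeks after sowing, by spraying WP or EC formulations as aqueous suspension/emulsion at 600–800 L/ha water with 0.2% wetting agent. After about 3 weeks, effect scored visually versus untreated controls (0% = like control, 100% = plants dead).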

CCc1cc(C)cc(C)c1C1=C(OC(=O)OC)C2CCOCCN2C1=O (centres unmarked) [Ib-1-6]
100%: Pre-emergence action ECHCG (herbicidal activity in percent) [1] | Pre-emergence action LOLMU (herbicidal activity in percent) [2] | Post-emergence effectiveness ALOMY (herbicidal action in percent) [3] | Post-emergence effectiveness ECHCG (herbicidal action in percent) [4] | Post-emergence effectiveness LOLMU (herbicidal action in percent) [5] | Pre-emergence action SETVI (herbicidal activity in percent) [6] | Post-emergence effectiveness SETVI (herbicidal action in percent) [7] | Pre-emergence action ALOMY (herbicidal activity in percent) [8] | Pre-emergence action AVEFA (herbicidal activity in percent) [9] | Post-emergence effectiveness AVEFA (herbicidal action in percent) [10]

CCOC(=O)OC1=C(c2c(C)cc(C)cc2CC)C(=O)N2CCOCCC12 (centres unmarked) [Ib-1-7]
100%: Pre-emergence action ECHCG (herbicidal activity in percent) [1] | Pre-emergence action LOLMU (herbicidal activity in percent) [2] | Post-emergence effectiveness ALOMY (herbicidal action in percent) [3] | Post-emergence effectiveness ECHCG (herbicidal action in percent) [4] | Post-emergence effectiveness LOLMU (herbicidal action in percent) [5] | Pre-emergence action SETVI (herbicidal activity in percent) [6] | Post-emergence effectiveness SETVI (herbicidal action in percent) [7] | Pre-emergence action ALOMY (herbicidal activity in percent) [8] | Pre-emergence action AVEFA (herbicidal activity in percent) [9] | Post-emergence effectiveness AVEFA (herbicidal action in percent) [10]

CCc1cc(C)cc(C)c1C1=C(OC(=O)C(C)(C)C)C2CCOCCN2C1=O (centres unmarked) [Ib-1-8]
100%: Pre-emergence action ECHCG (herbicidal activity in percent) [1] | Pre-emergence action LOLMU (herbicidal activity in percent) [2] | Post-emergence effectiveness ALOMY (herbicidal action in percent) [3] | Post-emergence effectiveness ECHCG (herbicidal action in percent) [4] | Post-emergence effectiveness LOLMU (herbicidal action in percent) [5] | Pre-emergence action SETVI (herbicidal activity in percent) [6] | Post-emergence effectiveness SETVI (herbicidal action in percent) [7] | Pre-emergence action ALOMY (herbicidal activity in percent) [8] | Pre-emergence action AVEFA (herbicidal activity in percent) [9] | Post-emergence effectiveness AVEFA (herbicidal action in percent) [10]

CCc1cc(C)cc(C)c1C1=C(OC(C)=O)C2CCOCCN2C1=O (centres unmarked) [Ib-1-9]
100%: Pre-emergence action ECHCG (herbicidal activity in percent) [1] | Pre-emergence action LOLMU (herbicidal activity in percent) [2] | Post-emergence effectiveness ALOMY (herbicidal action in percent) [3] | Post-emergence effectiveness ECHCG (herbicidal action in percent) [4] | Post-emergence effectiveness LOLMU (herbicidal action in percent) [5] | Pre-emergence action SETVI (herbicidal activity in percent) [6] | Post-emergence effectiveness SETVI (herbicidal action in percent) [7] | Pre-emergence action ALOMY (herbicidal activity in percent) [8] | Pre-emergence action AVEFA (herbicidal activity in percent) [9] | Post-emergence effectiveness AVEFA (herbicidal action in percent) [10]

CCOC(=O)OC1=C(c2c(C)cc(C)cc2C)C(=O)N2CCOCCC12 (centres unmarked) [Ib-1-10]
100%: Pre-emergence action ECHCG (herbicidal activity in percent) [1] | Pre-emergence action LOLMU (herbicidal activity in percent) [2] | Post-emergence effectiveness ALOMY (herbicidal action in percent) [3] | Post-emergence effectiveness ECHCG (herbicidal action in percent) [4] | Post-emergence effectiveness LOLMU (herbicidal action in percent) [5] | Pre-emergence action SETVI (herbicidal activity in percent) [6] | Post-emergence effectiveness SETVI (herbicidal action in percent) [7] | Post-emergence effectiveness AVEFA (herbicidal action in percent) [10]
90%: Pre-emergence action AVEFA (herbicidal activity in percent) [9]
80%: Pre-emergence action ALOMY (herbicidal activity in percent) [8]

Cc1cc(C)c(C2=C(OC(=O)C(C)(C)C)C3CCOCCN3C2=O)c(C)c1 (centres unmarked) [Ib-1-11]
100%: Pre-emergence action ECHCG (herbicidal activity in percent) [1] | Pre-emergence action LOLMU (herbicidal activity in percent) [2] | Post-emergence effectiveness ALOMY (herbicidal action in percent) [3] | Post-emergence effectiveness ECHCG (herbicidal action in percent) [4] | Post-emergence effectiveness LOLMU (herbicidal action in percent) [5] | Pre-emergence action SETVI (herbicidal activity in percent) [6] | Post-emergence effectiveness SETVI (herbicidal action in percent) [7] | Post-emergence effectiveness AVEFA (herbicidal action in percent) [10]
90%: Pre-emergence action ALOMY (herbicidal activity in percent) [8] | Pre-emergence action AVEFA (herbicidal activity in percent) [9]

CC(=O)OC1=C(c2c(C)cc(C)cc2C)C(=O)N2CCOCCC12 (centres unmarked) [Ib-1-12]
100%: Pre-emergence action ECHCG (herbicidal activity in percent) [1] | Pre-emergence action LOLMU (herbicidal activity in percent) [2] | Post-emergence effectiveness ALOMY (herbicidal action in percent) [3] | Post-emergence effectiveness ECHCG (herbicidal action in percent) [4] | Post-emergence effectiveness LOLMU (herbicidal action in percent) [5] | Pre-emergence action SETVI (herbicidal activity in percent) [6] | Post-emergence effectiveness SETVI (herbicidal action in percent) [7] | Pre-emergence action ALOMY (herbicidal activity in percent) [8] | Post-emergence effectiveness AVEFA (herbicidal action in percent) [10]
90%: Pre-emergence action AVEFA (herbicidal activity in percent) [9]

CCOC(=O)OC1=C(c2c(C)cccc2CC)C(=O)N2CCOCCC12 (centres unmarked) [Ib-1-13]
80%: Pre-emergence action ALOMY (herbicidal activity in percent) [8]
100%: Pre-emergence action ECHCG (herbicidal activity in percent) [1] | Pre-emergence action LOLMU (herbicidal activity in percent) [2] | Post-emergence effectiveness ALOMY (herbicidal action in percent) [3] | Post-emergence effectiveness ECHCG (herbicidal action in percent) [4] | Post-emergence effectiveness LOLMU (herbicidal action in percent) [5] | Pre-emergence action SETVI (herbicidal activity in percent) [6] | Post-emergence effectiveness SETVI (herbicidal action in percent) [7]
90%: Pre-emergence action AVEFA (herbicidal activity in percent) [9] | Post-emergence effectiveness AVEFA (herbicidal action in percent) [10]

CCc1cccc(C)c1C1=C(OC(=O)C(C)(C)C)C2CCOCCN2C1=O (centres unmarked) [Ib-1-14]
90%: Post-emergence effectiveness ALOMY (herbicidal action in percent) [3] | Pre-emergence action AVEFA (herbicidal activity in percent) [9]
80%: Pre-emergence action ALOMY (herbicidal activity in percent) [8]
100%: Pre-emergence action ECHCG (herbicidal activity in percent) [1] | Pre-emergence action LOLMU (herbicidal activity in percent) [2] | Post-emergence effectiveness ECHCG (herbicidal action in percent) [4] | Post-emergence effectiveness LOLMU (herbicidal action in percent) [5] | Pre-emergence action SETVI (herbicidal activity in percent) [6] | Post-emergence effectiveness SETVI (herbicidal action in percent) [7] | Post-emergence effectiveness AVEFA (herbicidal action in percent) [10]

CCc1cc(Cl)cc(OC)c1C1=C(OC(=O)OC)C2CCOCCN2C1=O (centres unmarked) [Ib-1-16]
100%: Pre-emergence action ECHCG (herbicidal activity in percent) [1] | Pre-emergence action LOLMU (herbicidal activity in percent) [2] | Post-emergence effectiveness ALOMY (herbicidal action in percent) [3] | Post-emergence effectiveness ECHCG (herbicidal action in percent) [4] | Post-emergence effectiveness LOLMU (herbicidal action in percent) [5] | Pre-emergence action SETVI (herbicidal activity in percent) [6] | Post-emergence effectiveness SETVI (herbicidal action in percent) [7] | Pre-emergence action ALOMY (herbicidal activity in percent) [8] | Pre-emergence action AVEFA (herbicidal activity in percent) [9] | Post-emergence effectiveness AVEFA (herbicidal action in percent) [10]

CCc1cc(Cl)cc(OC)c1C1=C(OC(=O)C(C)(C)C)C2CCOCCN2C1=O (centres unmarked) [Ib-1-18]
100%: Pre-emergence action ECHCG (herbicidal activity in percent) [1] | Pre-emergence action LOLMU (herbicidal activity in percent) [2] | Post-emergence effectiveness ALOMY (herbicidal action in percent) [3] | Post-emergence effectiveness ECHCG (herbicidal action in percent) [4] | Post-emergence effectiveness LOLMU (herbicidal action in percent) [5] | Pre-emergence action SETVI (herbicidal activity in percent) [6] | Post-emergence effectiveness SETVI (herbicidal action in percent) [7] | Pre-emergence action ALOMY (herbicidal activity in percent) [8] | Pre-emergence action AVEFA (herbicidal activity in percent) [9] | Post-emergence effectiveness AVEFA (herbicidal action in percent) [10]

Source: patent US20190119298A1, “FUSED 3-PHENYLTETRAMIC ACID DERIVATIVES HAVING HERBICIDAL ACTION” (Bayer CropScience Aktiengesellschaft, priority 2016, published 2019)
